Laboratory results taken from paper PMC8426238, “Synthesis and preclinical evaluation of [^11C]MTP38 as a novel PET ligand for phosphodiesterase 7 in the brain” (European Journal of Nuclear Medicine and Molecular Imaging, 2021).

How the values were obtained:
[1] = system: PDE7; experiment: In vitro autoradiography of monkey brain sections with [^11C]MTP38; assay type: binding, rhesus monkeys; details: 2 nM
Description: (§1) In vitro autoradiography was performed using 20-μm-thick fresh-frozen brain sections derived from Sprague-Dawley rats and rhesus monkeys. The sections were preincubated for 10 min in 50 mM Tris-HCl buffer (pH 7.4) at room temperature. These samples were then incubated for 60 min at room temperature in fresh buffer containing [^11C]MTP38 (2 nM) with or without unlabeled MTP38 (10 μM), MTP-X (4 μM), or MT-3014 (40 nM). The concentrations of MTP-X and MT-3014 were more than 400-fold of reported IC50 values of these agents. After the incubation, the brain sections were immersed twice in cold buffer for 3 min, dipped in cold distilled water for 10 s, and dried with warm airflow. Then the sections were contacted with imaging plates (BAS-MS2025, Fujifilm, Tokyo, Japan) for 60 min. The imaging plates were scanned with an imaging plate reader (BAS5000, Fujifilm, Tokyo, Japan), and the images were analyzed with the MultiGuage software (ver. 3.0, Fujifilm, Tokyo, Japan).

[2] = system: PDE7; experiment: PET imaging in rats with [^11C]MTP38; assay type: in vivo, Wistar rats
Description: Each rat was scanned multiple times with a shortest interval of 1 month. Rats were anesthetized with isoflurane (3% for induction and 2% for maintenance) throughout the experiment. The tail vein was cannulated for radioligand injection. Body temperature was maintained at around 37 °C using a heating pad. The head of the rat was fixed at the center of the field of view of an animal PET scanner (microPET Focus220, Siemens Medical Solutions, Malvern, USA). A 90-min list-mode data acquisition was started simultaneously with intravenous administration of [^11C]MTP38. The list-mode data were sorted into 3D sinograms, which were then Fourier-rebinned into 2D sinograms (frames: 10 s × 6, 30 s × 8, 1 min × 5, 2 min × 10, and 5 min × 12). The sinograms were reconstructed with a filtered back-projection algorithm using a Hanning filter with a cut-off at the Nyquist frequency (0.5 mm^−1).
Along with baseline scans, we conducted blockade PET experiments according to the following pretreatment protocols: (1) unlabeled MTP38 (0.5 mg/kg) was administered intravenously at 2 min before radioligand injection, and (2) MTP-X (100 mg/kg) was administered orally at 1 h before radioligand injection.
PET images were co-registered manually onto the magnetic resonance (MR) template image. Details of co-registration were described elsewhere. Regions of interest (ROIs) were placed on the striatum as a target region and on the cerebellum (gray matter) as a reference region according to the expression of PDE7B mRNA in the rat brain [6], and time-activity curves (TACs) were generated for each ROI. Radioactivity in the brain was normalized with injected radioactivity and body weight, and expressed as standardized uptake value (SUV). Then the SUV ratio between the striatum and cerebellum was obtained to estimate the radioligand binding in the target region in baseline and blockade experiments.

[3] = system: PDE7; experiment: PET imaging in monkeys with [^11C]MTP38; assay type: in vivo, rhesus monkeys; details: for Striatal BPND: MRTMo, cerebellar reference
Description: Each monkey underwent multiple PET scans with intervals longer than 2 weeks. The monkeys were given an intramuscular injection of 0.04 mg/kg of atropine sulfate at 1.5 h before radioligand injection. They were subsequently anesthetized with an intramuscular injection of ketamine (5 mg/kg) and xylazine (0.5 mg/kg), intubated, and kept anesthetized with 1–2% isoflurane. Heart rate, electrocardiogram, body temperature, blood oxygen saturation level, and end-tidal CO2 were monitored during the PET scan. The monkeys were placed on a bed in a supine position, and the head was fixed at the center of the field of view of a microPET scanner Focus220. A transmission scan was performed for about 20 min using a ^68Ge-^68Ga point source. A 90-min list-mode data acquisition was started simultaneously with intravenous administration of [^11C]MTP38 via a saphenous vein cannula. All list-mode data were sorted into 3D sinograms, which were then Fourier-rebinned into 2D sinograms (frames: 10 s × 6, 30 s × 8, 1 min × 5, 2 min × 10, and 5 min × 12). The images were corrected for attenuation and reconstructed with a filtered back-projection algorithm using a Hanning filter with a cut-off at the Nyquist frequency (0.5 mm^−1).
Along with baseline scans, we carried out blocking PET experiments according to the following pretreatment protocols: (1) unlabeled MTP38 was administered as an intravenous bolus (0.075 mg/kg) at 1 h before radioligand injection followed by continuous infusion at a rate of 0.3 mg/kg/h until the end of the PET scan, and (2) MTP-X (0.3–30 mg/kg) was administered orally at 2 or 6 h before radioligand injection.
(§2) PET scans for monkeys at baseline and following pretreatment with unlabeled MTP38, and 3, 10, 30 mg/kg of MTP-X were performed along with arterial blood sampling to obtain a metabolite-corrected input function. In total, 22 arterial blood samples were collected manually with heparinized syringes via a saphenous artery contralateral to the radioligand injection. Sampling was performed at 10, 20, 30, 40, 50, 60, 75, 90, 105, 120, 150, 180, and 210 s and at 4, 5, 10, 20, 30, 45, 60, 75, and 90 min after radioligand injection. Blood samples were then placed on ice and divided into two aliquots, one of which was centrifuged with a refrigerated centrifuge (15,000×g, 3 min, 4 °C) to obtain plasma.
PET images were co-registered onto the individual MR images. ROIs were placed on the prefrontal and medial frontal cortices, hippocampus, amygdala, striatum (caudate + putamen), nucleus accumbens, thalamus, cerebellum (gray matter), and brainstem. TACs in the baseline and blockade experiments were generated for each ROI.
Regional TACs were examined by several analytical methods to calculate the regional total distribution volume (VT), which represents the sum of non-specific and specific radioligand binding. Compartment model (1- or 2-tissue) and Logan’s graphical analyses were employed for describing the radioligand kinetics in the brain. The fractional blood volume was fixed at 0.05. For compartment model analyses, an optimal model was chosen on the basis of Akaike’s information criterion (AIC) and model selection criterion (MSC). For graphical analyses, an equilibration time t* was determined so that by the maximum error from the regression within the linear segment was considered to be 10% for each TAC. Time stability of VT was investigated by truncating the data duration stepwise from 90 min to 30 min. The VT values with or without pretreatment with a blocker were then compared. We also validated the use of the cerebellum as a reference tissue by this comparison, in addition to the autoradiographic findings, in monkey brain slices. The non-displaceable binding potential (BPND) was calculated by the original multilinear reference tissue model (MRTMO). t* was determined in the same manner as Logan’s graphical analysis. […]

[4] = Radiometabolite analysis of arterial plasma; assay type: in vivo, rhesus monkeys; details: monkey; 90 min after injection
Description: as §2
Radioactivity in blood and plasma was measured with an auto-gamma counter (wizard 2480, PerkinElmer, Waltham, MA, USA). […] An aliquot of supernatant (< 1 mL) was injected into an HPLC system (JASCO, Tokyo, Japan) equipped with a radioactivity detector (column: CAPCELL PAK AQ, 5 μm, 10 × 250 mm; column temperature: room temperature; mobile phase: 45% CH3CN; flow rate: 6.0 mL/min). The fraction of the parent [^11C]MTP38 was calculated as a ratio of the peak area of MTP38 to the total area of peaks found on the radiochromatograms. Then, an arterial input function was determined by quantifying the metabolite-corrected arterial plasma radioactivity concentration.

[5] = system: PDE7; experiment: In vitro autoradiography of rat brain sections with [^11C]MTP38; assay type: binding, Sprague-Dawley rats
Description: as §1

[6] = system: PDE7; design: method as in PMID 26330158; details: living rodent brains; cited from earlier work
[7] = monkey, baseline, Logan's graphical analysis, means of two animals

SMILES: C[C@@H]1CC[C@H](C)N(c2nnc3c(N)ncc([11C]#N)n23)C1 [[^11C]MTP38]
- radioligand reactivity in the striatum [1]: high radioligand reactivity in the striatum
- striatum-to-cerebellum ratio of SUV ([2]; baseline, plateau from 5 min): ~1.5
- SUV in the striatum and cerebellum at 90 min ([2]; iv, 90 min): below 1.0
- peak SUV in the striatum and cerebellum ([2]; iv, baseline): exceeding 4.0
- time of SUV peak after injection ([2]; iv, striatum and cerebellum): ≤ 1 min
- Striatal BPND ([3]; monkey #1, baseline): 0.409
- Striatal BPND ([3]; monkey #2, baseline): 0.287
- Regional VT, AMY (amygdala) [3, 7]: 2.50 mL/cm^3
- Regional VT, BS (brainstem) [3, 7]: 3.13 mL/cm^3
- Regional VT, CB (cerebellum) [3, 7]: 2.69 mL/cm^3
- Regional VT, HIP (hippocampus) [3, 7]: 2.38 mL/cm^3
- Regional VT, MFC (medial frontal cortex) [3, 7]: 3.27 mL/cm^3
- Regional VT, NAc (nucleus accumbens) [3, 7]: 2.97 mL/cm^3
- Regional VT, PFC (prefrontal cortex) [3, 7]: 2.93 mL/cm^3
- Regional VT, STR (striatum) [3, 7]: 3.59 mL/cm^3
- Regional VT, THA (thalamus) [3, 7]: 3.03 mL/cm^3
- k3 (2-tissue compartment model) ([3]; monkey, some ROIs including the striatum, model failed to estimate VT): < 0.0001 min⁻¹
- maximal SUV in brain ([3]; monkeys, iv): ~5
- time of brain radioactivity peak after injection ([3]; monkeys, iv): 3 to 4 min
- fraction of unmetabolized [^11C]MTP38 of total radioactivity in plasma [4]: 27.2%
- radioligand reactivity in the striatum ([5]; 2 nM): high radioligand reactivity in the striatum

SMILES: O=C1Nc2c(Cl)ccc(OCC[18F])c2C2(CCCCC2)N1 [[^18F]MICA-003]
- in vivo metabolism [6]: rapid metabolic conversion to a brain-entering radiomolecule

SMILES: Cc1nc2ccc(F)cc2nc1-c1cc2nc(N3CC[C@@H](F)C3)cc(NCC(C)(C)O)n2n1 [MT-3014, reference compound]
- effect of blocker on striatal radioactivity of [^11C]MTP38 ([5]; [^11C]MTP38 2 nM, unlabeled MTP38 10 μM, MTP-X 4 μM, MT-3014 40 nM): did not change the radioligand binding
